Results on 12 molecules are retold here after patent publication US20250114460A1, “NOVEL PLK1 DEGRADATION INDUCING COMPOUND” (UPPTHERA, INC., priority 2021, published 2025).

Common to all, as to type: cell-based
One experiment concerns the target T1, PLK1 (Homo sapiens, UniProt P53350).
T1 construct: endogenous in cells; host or cells: HeLa LgBit (Plk1-HiBit KI): HeLa stably expressing LgBit, with a CRISPR/Cas9 knock-in of HiBit at the endogenous PLK1 locus
The experiment in a line: Luciferase assay for PLK1 in HeLa LgBit (Plk1-HiBit KI) cell line. Conditions: 300 nM compound, luminescence after 9 hours. An outline of the steps:
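Luminescence, followed in real time after adding compound at 300 nM and Endurazine substrate, is reported relative to DMSO-treated wells. Cells are a HeLa LgBit line with a Plk1-HiBit knock-in, synchronized by 2 mM thymidine for 24 h, released, and cultured 18 h before treatment.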
(With HiBiT, luminescence reflects the tagged protein that the partner subunit can reach.)

Another experiment concerns NCI-H526 cell line. Nature of the experiment: Cell viability assay for H526 cell (EZ-Cytox). Particulars: Homo sapiens, NCI-H526, 120 h; H526 cells, 5 days, 3000 nM to 0.46 nM. The protocol:
(1) Culture of NCI-H526 Cell Line
(2) Treatment of Compounds of the Present Invention and Method of Cell Viability Assay
After treating the compound to each well to make the total volume of 200 μL, it was cultured in a CO2 incubator (Thermo Fisher Science, Cat. No. 4111) for 5 days.
The absorbance of the completely cultured sample was measured by setting the wavelength of a plate reader (BMG Labtech, CLARIOstar Plus) to […], and was measured after shaking for 3 minutes in a plate reader before measurement.
In Table 3, Activity represents IC50 value of each Exemplary Compound treatment group to H526 cell line (A: <30 nM, B: <50 nM, C: <100 nM, D: <200 nM, E: <400 nM).

The subject of the next experiment is MRC-5 cell line. Nature of the experiment: Cell viability assay for MRC-5 cell line (EZ-Cytox). Conditions: Homo sapiens, MRC5, 120 h; MRC-5 normal cell line, 5 days, 10000 nM to 1.52 nM; N.D. = no cytotoxicity until 10 μM; read-out: Activity: IC50 value of Exemplary Compound to MRC-5 cell line. The protocol:
4. Cell Viability Assay for MRC-5 Cell Line
(1) Culture of MRC-5 Cell Line
Passage of cultured cells was maintained within P15.
(2) Treatment of Compounds of the Present Invention
Then, it was cultured in 37° C.
(3) Cytotoxicity Experiment
CO2 incubator for 4 hours.

A value given as a limit tells only on which side of the number the result lay.

T1 sequence (P53350 whole entry): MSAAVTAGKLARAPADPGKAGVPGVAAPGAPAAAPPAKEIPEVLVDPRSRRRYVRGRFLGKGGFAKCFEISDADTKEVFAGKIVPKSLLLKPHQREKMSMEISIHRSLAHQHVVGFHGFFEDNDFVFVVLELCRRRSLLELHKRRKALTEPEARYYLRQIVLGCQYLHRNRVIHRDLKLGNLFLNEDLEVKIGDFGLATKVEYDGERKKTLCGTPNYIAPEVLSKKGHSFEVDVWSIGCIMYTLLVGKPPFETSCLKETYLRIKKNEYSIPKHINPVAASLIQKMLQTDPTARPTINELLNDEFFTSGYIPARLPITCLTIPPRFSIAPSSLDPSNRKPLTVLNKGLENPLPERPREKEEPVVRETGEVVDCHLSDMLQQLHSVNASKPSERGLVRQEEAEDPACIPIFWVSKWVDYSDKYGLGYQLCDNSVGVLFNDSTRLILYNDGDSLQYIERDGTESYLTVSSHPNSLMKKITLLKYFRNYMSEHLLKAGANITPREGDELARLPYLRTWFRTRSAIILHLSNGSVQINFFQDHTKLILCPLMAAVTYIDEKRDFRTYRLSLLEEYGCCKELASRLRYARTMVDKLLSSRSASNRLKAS

Consider `COc1cc(C(=O)NC2CCN(C(=O)CCN3CCN(c4cccc5c4CN(C4CCC(=O)NC4=O)C5=O)CC3)CC2)ccc1Nc1ncc2c(n1)N(C(C)C)CC(F)(F)C(=O)N2C` (centres unmarked) [Compound 133, 4-((7,7-difluoro-9-isopropyl-5-methyl-6-oxo-6,7,8,9-tetrahydro-5H-pyrimido[4,5-b][1,4]diazepin-2-yl)amino)-N-(1-(3-(4-(2-(2,6-dioxopiperidin-3-yl)-1-oxoisoindolin-4-yl)piperazin-1-yl)propanoyl)piperidin-4-yl)-3-methoxybenzamide], for which, on PLK1, the “Activity: ratio of the luminescense value of each Exemplary Compound treatment group to DMSO treatment group” value (“Activity: ratio” for short) is reported as “++ (++<0.6)”. In addition, the concentration for half-maximal inhibition (IC50) (usually the concentration that inhibits the measured activity by half) was below 0.05 µM in the experiment on NCI-H526 cell line and above 10 µM in the experiment on MRC-5 cell line.

Consider `COc1cc(C(=O)NC2CCN(C(=O)CCN3CCN(c4ccc(F)c5c4C(=O)N(C4CCC(=O)NC4=O)C5=O)CC3)CC2)ccc1Nc1ncc2c(n1)N(C1CCCC1)CC(F)(F)C(=O)N2C` (centres unmarked) [Compound 142, 4-((9-cyclopentyl-7,7-difluoro-5-methyl-6-oxo-6,7,8,9-tetrahydro-5H-pyrimido[4,5-b][1,4]diazepin-2-yl)amino)-N-(1-(3-(4-(2-(2,6-dioxopiperidin-3-yl)-7-fluoro-1,3-dioxoisoindolin-4-yl)piperazin-1-yl)propanoyl)piperidin-4-yl)-3-methoxybenzamide], for which the “Activity: ratio” value on PLK1 is given as “++ (++<0.6)”. In addition, the IC50 in the experiment with NCI-H526 cell line was below 0.1 µM; with MRC-5 cell line, above 10 µM.

Take `COc1cc(C(=O)NN2CCC(CCN3CCN(c4cccc5c4C(=O)N(C4CCC(=O)NC4=O)C5=O)CC3)C2)ccc1Nc1ncc2c(n1)N(C1CCCC1)CC(F)(F)C(=O)N2C` (centres unmarked) [Compound 151, 4-((9-cyclopentyl-7,7-difluoro-5-methyl-6-oxo-6,7,8,9-tetrahydro-5H-pyrimido[4,5-b][1,4]diazepin-2-yl)amino)-N-(3-(2-(4-(2-(2,6-dioxopiperidin-3-yl)-1,3-dioxoisoindolin-4-yl)piperazin-1-yl)ethyl)pyrrolidin-1-yl)-3-methoxybenzamide]: on PLK1, the “Activity: ratio” value is listed as “++ (++<0.6)”. Besides, the IC50 in the experiment on NCI-H526 cell line was below 0.05 µM; with MRC-5 cell line it was above 10 µM.

Regarding `COc1cc(C(=O)NN2CCN(C(=O)CCC3CCN(c4cccc5c4CN(C4CCC(=O)NC4=O)C5=O)CC3)CC2)ccc1Nc1ncc2c(n1)N(C(C)C)CC(F)(F)C(=O)N2C` (centres unmarked) [Compound 58, 4-((7,7-difluoro-9-isopropyl-5-methyl-6-oxo-6,7,8,9-tetrahydro-5H-pyrimido[4,5-b][1,4]diazepin-2-yl)amino)-N-(4-(3-(1-(2-(2,6-dioxopiperidin-3-yl)-1-oxoisoindolin-4-yl)piperidin-4-yl)propanoyl)piperazin-1-yl)-3-methoxybenzamide], the “Activity: ratio” value on PLK1 is on record as “++ (++<0.6)”. Besides, the concentration for half-maximal inhibition (IC50) with NCI-H526 cell line is below 0.05 µM; in the experiment on MRC-5 cell line, above 10 µM.

For `COc1cc(C(=O)NC2CCC(N(C)C3CCN(c4cccc5c4C(=O)N(C4CCC(=O)NC4=O)C5=O)CC3)C2)ccc1Nc1ncc2c(n1)N(C(C)C)CC(F)(F)C(=O)N2C` (centres unmarked) [Compound 165, 4-((7,7-difluoro-9-isopropyl-5-methyl-6-oxo-6,7,8,9-tetrahydro-5H-pyrimido[4,5-b][1,4]diazepin-2-yl)amino)-N-(3-((1-(2-(2,6-dioxopiperidin-3-yl)-1,3-dioxoisoindolin-4-yl)piperidin-4-yl)(methyl)amino)cyclopentyl)-3-methoxybenzamide], the “Activity: ratio” value on PLK1 was “++ (++<0.6)”. Further, the results for the IC50 with NCI-H526 cell line and in the experiment on MRC-5 cell line were below 0.03 µM and above 10 µM, respectively.

As to `COc1cc(C(=O)NC2CCN(C(=O)CCC3(O)CCN(c4cccc5c4C(=O)N(C4CCC(=O)NC4=O)C5=O)CC3)CC2)ccc1Nc1ncc2c(n1)N(C1CCCC1)CC(F)(F)C(=O)N2C` (centres unmarked) [Compound 63, 4-((9-cyclopentyl-7,7-difluoro-5-methyl-6-oxo-6,7,8,9-tetrahydro-5H-pyrimido[4,5-b][1,4]diazepin-2-yl)amino)-N-(1-(3-(1-(2-(2,6-dioxopiperidin-3-yl)-1,3-dioxoisoindolin-4-yl)-4-hydroxypiperidin-4-yl)propanoyl)piperidin-4-yl)-3-methoxybenzamide], the “Activity: ratio” value at PLK1 is listed as “+++ (+++: <0.3)”. In addition, the IC50 in the experiment with NCI-H526 cell line is below 0.05 µM; with MRC-5 cell line it was above 10 µM.

For the molecule `COc1cc(C(=O)NC2CCN(C(=O)CCN3CCN(c4cccc5c4C(=O)N(C4CCC(=O)NC4=O)C5=O)CC3)CC2)ccc1Nc1ncc2c(n1)N(C1CCCC1)CC1(CC1)C(=O)N2C` (centres unmarked) [Compound 120, 4-((9′-cyclopentyl-5′-methyl-6′-oxo-5′,6′,8′,9′-tetrahydrospiro[cyclopropane-1,7′-pyrimido[4,5-b][1,4]diazepin]-2′-yl)amino)-N-(1-(3-(4-(2-(2,6-dioxopiperidin-3-yl)-1,3-dioxoisoindolin-4-yl)piperazin-1-yl)propanoyl)piperidin-4-yl)-3-methoxybenzamide], the “Activity: ratio” value at PLK1 was “+++ (+++: <0.3)”. The IC50 in the experiment with NCI-H526 cell line is below 0.05 µM; in the experiment with MRC-5 cell line, above 10 µM.

`COc1cc(C(=O)N[C@H]2CC[C@H](N(C)CCN3CCN(c4cccc5c4C(=O)N(C4CCC(=O)NC4=O)C5=O)CC3)CC2)ccc1Nc1ncc2c(n1)N(C1CCCC1)CC(F)(F)C(=O)N2C` (some centres unmarked) [Compound 129, 4-((9-cyclopentyl-7,7-difluoro-5-methyl-6-oxo-6,7,8,9-tetrahydro-5H-pyrimido[4,5-b][1,4]diazepin-2-yl)amino)-N-((1r,4r)-4-((2-(4-(2-(2,6-dioxopiperidin-3-yl)-1,3-dioxoisoindolin-4-yl)piperazin-1-yl)ethyl)(methyl)amino)cyclohexyl)-3-methoxybenzamide]: the “Activity: ratio” value on PLK1 is on record as “+++ (+++: <0.3)”. Further, the results for the concentration for half-maximal inhibition (IC50) with NCI-H526 cell line and in the experiment on MRC-5 cell line were below 0.03 µM and 17.3 µM, respectively.

Regarding `COc1cc(C(=O)N[C@H]2CC[C@H](N3CCN(CCCNc4cccc5c4C(=O)N(C4CCC(=O)NC4=O)C5=O)CC3)CC2)c(F)cc1Nc1ncc2c(n1)N(C1CCCC1)CC(F)(F)C(=O)N2C` (some centres unmarked) [Compound 197, 4-((9-cyclopentyl-7,7-difluoro-5-methyl-6-oxo-6,7,8,9-tetrahydro-5H-pyrimido[4,5-b][1,4]diazepin-2-yl)amino)-N-((1r,4r)-4-(4-(3-((2-(2,6-dioxopiperidin-3-yl)-1,3-dioxoisoindolin-4-yl)amino)propyl)piperazin-1-yl)cyclohexyl)-2-fluoro-5-methoxybenzamide], the “Activity: ratio” value at PLK1 is reported as “++ (++<0.6)”. Further, the IC50 is below 0.05 µM in the experiment with NCI-H526 cell line and 18 µM with MRC-5 cell line.

Take `COc1cc(C(=O)NC2CCN(C(=O)CCN3CCN(c4cccc5c4C(=O)N(C4CCC(=O)NC4=O)C5=O)CC3)CC2)ccc1Nc1ncc2c(n1)N(C1CCC1)CC(F)(F)C(=O)N2C` (centres unmarked) [Compound 68, 4-((9-cyclobutyl-7,7-difluoro-5-methyl-6-oxo-6,7,8,9-tetrahydro-5H-pyrimido[4,5-b][1,4]diazepin-2-yl)amino)-N-(1-(3-(4-(2-(2,6-dioxopiperidin-3-yl)-1,3-dioxoisoindolin-4-yl)piperazin-1-yl)propanoyl)piperidin-4-yl)-3-methoxybenzamide]: the “Activity: ratio” value at PLK1 was “+++ (+++: <0.3)”. The figures for the IC50 in the experiment with NCI-H526 cell line and with MRC-5 cell line were below 0.1 µM and above 10 µM, respectively.

As to `COc1cc(C(=O)NN2CCC(N3CC4(CCN(c5cc6c(cc5F)C(=O)N(C5CCC(=O)NC5=O)C6=O)CC4)C3)CC2)ccc1Nc1ncc2c(n1)N(C(C)C)CC(F)(F)C(=O)N2C` (centres unmarked) [Compound 216, 4-((7,7-difluoro-9-isopropyl-5-methyl-6-oxo-6,7,8,9-tetrahydro-5H-pyrimido[4,5-b][1,4]diazepin-2-yl)amino)-N-(4-(7-(2-(2,6-dioxopiperidin-3-yl)-6-fluoro-1,3-dioxoisoindolin-5-yl)-2,7-diazaspiro[3.5]nonan-2-yl)piperidin-1-yl)-3-methoxybenzamide], the “Activity: ratio” value on PLK1 was “++ (++<0.6)”. Further, the IC50 in the experiment with NCI-H526 cell line is below 0.2 µM; in the experiment with MRC-5 cell line, 27 µM.

On to `CN1C(=O)C(F)(F)CN(C2CCCC2)c2nc(Nc3ccc(C(=O)NC4CCN(C(=O)CCCNc5cccc6c5C(=O)N(C5CCC(=O)NC5=O)C6=O)CC4)cc3OC(F)(F)F)ncc21` (centres unmarked) [Compound 28, 4-((9-cyclopentyl-7,7-difluoro-5-methyl-6-oxo-6,7,8,9-tetrahydro-5H-pyrimido[4,5-b][1,4]diazepin-2-yl)amino)-N-(1-(4-((2-(2,6-dioxopiperidin-3-yl)-1,3-dioxoisoindolin-4-yl)amino)butanoyl)piperidin-4-yl)-3-(trifluoromethoxy)benzamide], for which the “Activity: ratio” value on PLK1 is “++ (++<0.6)”. In the experiment on MRC-5 cell line, the IC50 is above 10 µM.
